# ChEMBL document CHEMBL5465560, “Selectivity Literature for EUbOPEN Chemogenomic Library” (2024)
# Legend:
# [1] = target: T1, Mitogen-activated protein kinase kinase kinase 5 (Homo sapiens) (UniProt Q99683); assay: Selectivity interaction (Kinase panel (DSF assay)) EUB0001559a MAP3K5
# T1 sequence (whole entry): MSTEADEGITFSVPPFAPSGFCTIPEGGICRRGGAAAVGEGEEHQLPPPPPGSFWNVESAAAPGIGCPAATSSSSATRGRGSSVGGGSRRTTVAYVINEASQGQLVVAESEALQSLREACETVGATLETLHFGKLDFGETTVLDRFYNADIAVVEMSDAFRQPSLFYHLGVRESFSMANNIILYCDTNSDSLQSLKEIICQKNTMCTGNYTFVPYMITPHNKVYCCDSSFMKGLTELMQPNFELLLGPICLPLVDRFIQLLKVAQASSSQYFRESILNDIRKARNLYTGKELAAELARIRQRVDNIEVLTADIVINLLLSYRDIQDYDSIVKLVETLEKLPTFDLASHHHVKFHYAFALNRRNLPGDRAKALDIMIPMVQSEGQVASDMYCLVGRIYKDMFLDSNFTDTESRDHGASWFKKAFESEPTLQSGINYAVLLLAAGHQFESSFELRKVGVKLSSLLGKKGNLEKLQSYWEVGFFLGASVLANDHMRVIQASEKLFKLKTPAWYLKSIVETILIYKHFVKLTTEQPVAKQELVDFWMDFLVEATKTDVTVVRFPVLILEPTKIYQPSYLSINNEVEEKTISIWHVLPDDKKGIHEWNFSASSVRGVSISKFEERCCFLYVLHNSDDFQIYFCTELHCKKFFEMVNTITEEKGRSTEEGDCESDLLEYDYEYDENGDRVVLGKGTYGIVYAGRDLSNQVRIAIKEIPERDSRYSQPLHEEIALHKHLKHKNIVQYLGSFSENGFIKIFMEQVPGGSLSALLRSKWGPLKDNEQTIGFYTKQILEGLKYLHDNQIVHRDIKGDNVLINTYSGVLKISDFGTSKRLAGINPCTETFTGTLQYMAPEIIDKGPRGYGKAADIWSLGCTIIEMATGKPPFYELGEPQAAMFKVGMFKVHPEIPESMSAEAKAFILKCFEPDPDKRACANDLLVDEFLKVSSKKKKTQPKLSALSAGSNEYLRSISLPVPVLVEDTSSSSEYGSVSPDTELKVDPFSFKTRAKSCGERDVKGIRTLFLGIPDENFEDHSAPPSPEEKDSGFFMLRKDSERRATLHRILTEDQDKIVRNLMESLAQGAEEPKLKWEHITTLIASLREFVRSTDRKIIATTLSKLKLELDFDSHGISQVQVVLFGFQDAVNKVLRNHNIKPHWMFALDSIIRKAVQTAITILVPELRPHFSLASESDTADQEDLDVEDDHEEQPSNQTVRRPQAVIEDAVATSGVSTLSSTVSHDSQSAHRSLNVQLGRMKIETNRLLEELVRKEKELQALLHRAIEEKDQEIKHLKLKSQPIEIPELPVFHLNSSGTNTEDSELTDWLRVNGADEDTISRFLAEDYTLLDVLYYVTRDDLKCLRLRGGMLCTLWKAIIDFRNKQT
# [2] = target: Phosphatidylinositol 4,5-bisphosphate 3-kinase catalytic subunit alpha isoform (Homo sapiens) (UniProt P42336); assay: Selectivity interaction (Adapta Assay) EUB0001632a PIK3CA; details: at 10 µM
# Chain of Phosphatidylinositol 4,5-bisphosphate 3-kinase catalytic subunit alpha isoform (Homo sapiens) (P42336 whole entry, canonical isoform): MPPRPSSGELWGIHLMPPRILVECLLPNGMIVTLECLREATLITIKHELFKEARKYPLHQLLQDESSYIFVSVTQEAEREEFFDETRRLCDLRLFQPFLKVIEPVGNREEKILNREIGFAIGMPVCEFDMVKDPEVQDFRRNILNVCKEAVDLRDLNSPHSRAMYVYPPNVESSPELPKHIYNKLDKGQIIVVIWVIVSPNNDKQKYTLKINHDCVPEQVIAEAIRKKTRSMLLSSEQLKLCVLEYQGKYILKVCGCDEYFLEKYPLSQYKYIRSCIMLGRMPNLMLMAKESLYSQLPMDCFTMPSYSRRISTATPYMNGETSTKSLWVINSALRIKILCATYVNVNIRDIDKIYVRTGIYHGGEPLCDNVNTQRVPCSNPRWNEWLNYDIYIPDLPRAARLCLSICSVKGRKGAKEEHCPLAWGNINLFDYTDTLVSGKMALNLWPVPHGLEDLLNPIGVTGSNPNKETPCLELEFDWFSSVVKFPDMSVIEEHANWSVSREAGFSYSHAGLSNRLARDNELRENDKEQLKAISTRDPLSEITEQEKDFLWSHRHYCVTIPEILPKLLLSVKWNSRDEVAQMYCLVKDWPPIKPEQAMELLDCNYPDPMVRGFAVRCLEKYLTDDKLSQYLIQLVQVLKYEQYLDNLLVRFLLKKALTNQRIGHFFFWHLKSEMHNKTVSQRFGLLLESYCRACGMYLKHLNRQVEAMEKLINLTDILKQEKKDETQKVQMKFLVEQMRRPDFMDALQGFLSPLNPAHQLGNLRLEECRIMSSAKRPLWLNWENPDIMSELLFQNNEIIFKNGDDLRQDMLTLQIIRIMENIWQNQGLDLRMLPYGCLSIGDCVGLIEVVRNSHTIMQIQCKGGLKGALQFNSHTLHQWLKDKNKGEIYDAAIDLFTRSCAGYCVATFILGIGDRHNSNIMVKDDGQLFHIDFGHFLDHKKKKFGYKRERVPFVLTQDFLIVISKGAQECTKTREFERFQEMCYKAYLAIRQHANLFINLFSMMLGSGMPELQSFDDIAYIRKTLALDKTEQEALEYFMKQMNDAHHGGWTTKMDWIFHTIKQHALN
# [3] = target: T2, Dual specificity mitogen-activated protein kinase kinase 6 (Homo sapiens) (UniProt P52564); assay: Selectivity interaction (Kinase panel (Invitrogen)) EUB0000639a MAP2K6; details: at 200 nM
# T2 sequence (whole entry): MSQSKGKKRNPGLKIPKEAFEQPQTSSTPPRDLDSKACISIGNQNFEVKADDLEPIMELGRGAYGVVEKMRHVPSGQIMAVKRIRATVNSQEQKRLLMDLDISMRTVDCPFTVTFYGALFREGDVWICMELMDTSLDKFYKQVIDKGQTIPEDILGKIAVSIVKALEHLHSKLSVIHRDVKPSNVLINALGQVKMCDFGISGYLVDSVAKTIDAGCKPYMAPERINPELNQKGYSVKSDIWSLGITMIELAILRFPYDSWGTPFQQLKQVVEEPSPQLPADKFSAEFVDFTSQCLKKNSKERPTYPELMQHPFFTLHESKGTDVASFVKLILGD
# [4] = target: Dual specificity protein kinase CLK2 (Homo sapiens, UniProt P49760); assay: Selectivity interaction (Kinase panel (Invitrogen)) EUB0000639a CLK2; details: at 200 nM
# Chain of Dual specificity protein kinase CLK2 (P49760 whole entry, looked up): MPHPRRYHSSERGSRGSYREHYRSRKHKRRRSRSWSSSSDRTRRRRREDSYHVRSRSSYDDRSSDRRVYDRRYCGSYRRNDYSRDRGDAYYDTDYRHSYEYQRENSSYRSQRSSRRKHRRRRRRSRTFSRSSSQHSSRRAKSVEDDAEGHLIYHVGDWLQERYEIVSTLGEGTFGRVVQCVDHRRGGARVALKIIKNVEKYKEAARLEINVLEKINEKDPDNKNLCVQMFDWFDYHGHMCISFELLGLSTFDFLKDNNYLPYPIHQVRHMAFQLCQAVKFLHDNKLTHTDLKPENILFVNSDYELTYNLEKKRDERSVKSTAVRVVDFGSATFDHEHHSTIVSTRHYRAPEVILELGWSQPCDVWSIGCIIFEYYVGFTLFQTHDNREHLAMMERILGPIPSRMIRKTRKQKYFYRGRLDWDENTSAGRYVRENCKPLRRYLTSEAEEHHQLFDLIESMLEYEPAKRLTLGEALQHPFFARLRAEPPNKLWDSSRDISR
# [5] = target: Ribosomal protein S6 kinase alpha-5 (Homo sapiens) (UniProt O75582); assay: Selectivity interaction (SelectScreen profiling (Invitrogen)) EUB0000607a RPS6KA5; details: at 2 µM
# Chain of Ribosomal protein S6 kinase alpha-5 (Homo sapiens) (O75582 whole entry, looked up): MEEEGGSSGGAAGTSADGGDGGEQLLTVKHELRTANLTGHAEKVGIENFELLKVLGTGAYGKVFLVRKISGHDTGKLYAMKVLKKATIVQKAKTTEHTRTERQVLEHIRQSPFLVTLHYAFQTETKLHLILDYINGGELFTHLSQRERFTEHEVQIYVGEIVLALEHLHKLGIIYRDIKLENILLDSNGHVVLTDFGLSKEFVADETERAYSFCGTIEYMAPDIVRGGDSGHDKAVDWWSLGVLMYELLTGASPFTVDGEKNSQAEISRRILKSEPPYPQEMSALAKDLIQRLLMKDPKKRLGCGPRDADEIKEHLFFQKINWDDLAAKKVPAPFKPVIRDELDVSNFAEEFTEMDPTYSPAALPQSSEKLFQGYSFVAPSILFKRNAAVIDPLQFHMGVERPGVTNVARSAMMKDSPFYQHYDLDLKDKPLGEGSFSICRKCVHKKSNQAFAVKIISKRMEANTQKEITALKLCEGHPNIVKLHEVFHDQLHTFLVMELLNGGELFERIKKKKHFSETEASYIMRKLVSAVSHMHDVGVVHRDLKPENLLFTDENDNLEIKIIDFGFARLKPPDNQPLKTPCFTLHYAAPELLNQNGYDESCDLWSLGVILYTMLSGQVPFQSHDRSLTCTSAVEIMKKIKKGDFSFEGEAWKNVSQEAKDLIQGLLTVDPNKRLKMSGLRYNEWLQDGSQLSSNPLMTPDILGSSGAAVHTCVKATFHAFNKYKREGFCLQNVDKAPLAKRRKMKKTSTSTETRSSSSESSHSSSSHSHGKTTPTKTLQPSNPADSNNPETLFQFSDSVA
# [6] = target: T3, Rhodopsin kinase GRK1 (Homo sapiens) (UniProt Q15835); assay: Selectivity interaction (KinomeScan (DiscoverX)) EUB0000618a GRK1; details: at 10 µM
# T3 sequence (whole entry): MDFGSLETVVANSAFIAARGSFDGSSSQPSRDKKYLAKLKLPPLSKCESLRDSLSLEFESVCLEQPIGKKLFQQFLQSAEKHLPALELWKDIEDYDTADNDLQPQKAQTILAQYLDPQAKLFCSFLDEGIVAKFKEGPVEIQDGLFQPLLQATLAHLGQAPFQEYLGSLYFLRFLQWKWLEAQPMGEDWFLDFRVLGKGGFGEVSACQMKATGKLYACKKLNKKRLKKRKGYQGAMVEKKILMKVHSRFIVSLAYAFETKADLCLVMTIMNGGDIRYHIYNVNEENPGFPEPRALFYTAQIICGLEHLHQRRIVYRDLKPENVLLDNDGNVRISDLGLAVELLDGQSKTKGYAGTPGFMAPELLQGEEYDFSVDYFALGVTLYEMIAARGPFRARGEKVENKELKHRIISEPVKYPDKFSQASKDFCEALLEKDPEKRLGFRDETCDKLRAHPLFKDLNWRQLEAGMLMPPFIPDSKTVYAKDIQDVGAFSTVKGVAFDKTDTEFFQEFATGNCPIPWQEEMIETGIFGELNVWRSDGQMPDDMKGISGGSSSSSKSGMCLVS
# [7] = target: Serine/threonine-protein kinase 38 (Homo sapiens) (UniProt Q15208); assay: Selectivity interaction (Ambit KINOMEscan and KiNATiv profiling in Jurkat cells) EUB0000090b STK38; format: cell-based; details: at 1 µM
# Chain of Serine/threonine-protein kinase 38 (Homo sapiens) (Q15208 2-465 limits assumed): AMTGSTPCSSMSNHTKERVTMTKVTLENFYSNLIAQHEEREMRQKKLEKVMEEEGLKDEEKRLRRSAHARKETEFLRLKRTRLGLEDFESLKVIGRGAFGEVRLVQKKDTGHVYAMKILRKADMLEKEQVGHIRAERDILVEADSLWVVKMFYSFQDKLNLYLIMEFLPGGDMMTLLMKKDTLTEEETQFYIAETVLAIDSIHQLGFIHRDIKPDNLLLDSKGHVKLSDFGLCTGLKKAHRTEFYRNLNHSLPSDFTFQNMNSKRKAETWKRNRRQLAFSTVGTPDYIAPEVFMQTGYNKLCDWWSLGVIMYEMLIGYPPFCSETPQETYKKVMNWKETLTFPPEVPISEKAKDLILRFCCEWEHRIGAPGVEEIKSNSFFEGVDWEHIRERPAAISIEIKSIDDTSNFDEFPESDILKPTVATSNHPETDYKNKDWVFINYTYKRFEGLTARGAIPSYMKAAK
compound,measurement,setting,value
CN(C(=O)c1cnn2cccnc12)c1cc2c(cc1N1CCOCC1)C(=O)N(C[C@@H](F)C(C)(C)O)C2,dTM,[1],-0.3 K
Cn1cc(-n2cnc3c(NCc4nc5cc(Cl)c(Cl)cc5[nH]4)nc(N4CCOCC4)nc32)cn1,% of inhibition,[2],37.1%
CC[C@@H]1[C@H](F)C(=O)N[C@@H]1COc1nccc2cc(C(N)=O)c(OC)cc12 [ZIMLOVISERTIB],% of inhibition,[3],1.6%
same,% of inhibition,[4],14.8%
CNC(=O)Nc1ccc(-c2nc(N3CC4CCC(C3)O4)c3cnn(C4CCC5(CC4)OCCO5)c3n2)cc1,% of inhibition,[5],1%
O[C@H]1CC[C@H](Nc2ncc3nc(Nc4c(F)cc(F)cc4F)n([C@H]4CCOC4)c3n2)CC1,% of control,[6],78%
CN(C)C/C=C/C(=O)Nc1ccc(C(=O)N2CCCC(Nc3ncc(Cl)c(-c4c[nH]c5ccccc45)n3)C2)cc1 (configuration not stated),% of control,[7],100%
